Patent publication US7919101B2 (priority 2008, dated 2011)
“And” between values parts separate entries of the source, which are not always exact repeats. Equal entries are not always repeated. Where two headings read alike, the source gives them in different places.

Key:
[1] = in the blood; cited from earlier work
[2] = system: HIV-1 93IN101 (subtype C, R5)
Method: (§1) Inhibitory activity of fusion/entry inhibitors on infection by a primary HIV-1 isolate was determined as previously described (Jiang S et al. Antimicrob Agents Chemother 48:4349-4359, 2004). Peripheral blood mononuclear cells (PBMCs) were isolated from the blood of healthy donors by standard density gradient centrifugation using Histopaque-1077 (Sigma). The cells were plated in 75 cm^2 plastic flasks and incubated at 37° C. for 2 hrs. The nonadherent cells were collected and resuspended at 5×10^6 in 10 ml RPMI-1640 medium containing 10% FBS, 5 μg/ml PHA (phytohemagglutinin) and 100 U/ml IL-2 (Sigma), followed by incubation at 37° C. for 3 days. The PHA-stimulated cells were infected with a primary HIV-1 isolates at 0.01 MOI in the absence or presence of a compound at graded concentrations. Culture media were changed every 3 days. The supernatants were collected 7 days post-infection and tested for p24 antigen by ELISA as described above. The percent inhibition of p24 production and EC50 values were calculated as described above.
(§2) 4. Synergy analysis. […] In all analyses, HIV fusion/entry inhibitors were assumed to act noncompetitively, which led to a more conservative estimate of synergy. CI values<1 and >1 indicate synergy and antagonism, respectively. Dose reductions were calculated as the compound concentrations required for inhibition of HIV-1 replication when the compound was used alone and in combination. The statistic analysis was performed by the One-Way Analysis of Variance (One-Way ANOVA) method using Origin 6.1 software.

[3] = system: HIV-1-mediated cell-cell fusion (H9/HIV-1IIIB cells and MT-2 cells); experiment: HIV-1-mediated cell-cell fusion, dye transfer assay; type: cell-based
Method: The inhibitory activities of the compounds on HIV-induced cell-cell fusion were determined using a dye transfer assay (Jiang S et al. Proc SPIE 3926:212-219, 2000). Briefly, H9/HIV-1IIIB cells were pre-labeled with a fluorescent dye, Calcein AM (Molecular Probes, Inc.), and incubated with a testing compound at a graded concentration at 37° C. for 30 min in a 96-well cell culture plate. Then the CD4^+ MT-2 cells were added to the H9/HIV-1IIIB cells at a ratio of 10:1, followed by incubation at 37° C. for 2 hrs. The fused and unfused calcein-labeled HIV-1-infected cells were counted under an inverted fluorescence microscope with an eyepiece micrometer disc.

[4] = system: HIV-1 RU570 (clade G, R5); experiment: Inhibition of infection by primary HIV-1 isolate RU570; type: cell-based
Method: as §1, §2

[5] = in combination T-20:C34 (8:1) vs alone
[6] = in combination T-20:Sifuvirtide (4:1)
[7] = in combination T-20:Sifuvirtide (4:1) vs alone
[8] = in combination T-20:T-1144 (4:1)
[9] = in combination T-20:T-1144 (4:1) vs alone
[10] = in combination T-20:T-1249 (4:1)
[11] = in combination T-20:T-1249 (4:1) vs alone
[12] = in combination T-20:T-1249:C34 (8:2:1)
[13] = in combination T-20:T-1249:C34 (8:2:1) vs alone
[14] = in combination T-20:T-1249:T-1144 (4:1:1)
[15] = in combination T-20:T-1249:T-1144 (4:1:1) vs alone
[16] = peptide tested alone, listed as T20

Substance: enfuvirtide
- half-life in vivo [1]: about 2 hours
- Dose reduction ([2]; 93IN101, T-20+T-1249+T-1144 4:1:1): 15.70 fold
- Dose reduction ([2]; 93IN101, T-20 combined with T-1144): 9.30 fold
- Dose reduction ([2]; 93IN101, T-20 combined with T-1249): 10.90 fold
- EC50 ([2]; read-out: EC50 alone, 93IN101 (C, R5) primary isolate, peptide alone): 39.9 nM
- EC50 ([2]; read-out: EC50 in mixture, 93IN101, T-20+T-1249+T-1144 4:1:1): 2.54 nM
- EC50 ([2]; read-out: EC50 in mixture, 93IN101, T-20 combined with T-1144, ratios 4:1:1): 4.29 nM
- EC50 ([2]; read-out: EC50 in mixture, 93IN101, T-20 combined with T-1249, ratios 4:1:1): 3.66 nM
- EC70 Concentration Mix ([3]; in combination T-20:C34 (8:1)): 0.427 nM
- EC95 Concentration Mix ([3]; in combination T-20:C34 (8:1)): 0.682 nM
- Potency increase at EC50 [3, 5]: 61.108 fold
- Potency increase at EC70 [3, 5]: 62.834 fold
- Potency increase at EC95 [3, 5]: 65.594 fold
- EC50 ([3]; in combination T-20:C34 (8:1), read-out: EC50 Concentration Mix): 0.324 nM
- EC90 ([3]; in combination T-20:C34 (8:1), read-out: EC90 Concentration Mix): 0.564 nM
- EC70 Concentration Mix [3, 6]: 2.356 nM
- EC95 Concentration Mix [3, 6]: 3.537 nM
- Potency increase at EC50 [3, 7]: 8.928 fold
- Potency increase at EC70 [3, 7]: 8.863 fold
- Potency increase at EC95 [3, 7]: 8.757 fold
- EC50 ([3]; in combination T-20:Sifuvirtide (4:1), read-out: EC50 Concentration Mix): 1.85 nM
- EC90 ([3]; in combination T-20:Sifuvirtide (4:1), read-out: EC90 Concentration Mix): 3 nM
- EC70 Concentration Mix [3, 8]: 0.033 nM
- EC95 Concentration Mix [3, 8]: 0.052 nM
- Potency increase at EC50 [3, 9]: 791.960 fold
- Potency increase at EC70 [3, 9]: 813.030 fold
- Potency increase at EC95 [3, 9]: 860.288 fold
- EC50 ([3]; in combination T-20:T-1144 (4:1), read-out: EC50 Concentration Mix): 0.025 nM
- EC90 ([3]; in combination T-20:T-1144 (4:1), read-out: EC90 Concentration Mix): 0.043 nM
- EC70 Concentration Mix [3, 10]: 0.051 nM
- EC95 Concentration Mix [3, 10]: 0.082 nM
- Potency increase at EC50 [3, 11]: 521.026 fold
- Potency increase at EC70 [3, 11]: 526.078 fold
- Potency increase at EC95 [3, 11]: 545.549 fold
- EC50 ([3]; in combination T-20:T-1249 (4:1), read-out: EC50 Concentration Mix): 0.038 nM
- EC90 ([3]; in combination T-20:T-1249 (4:1), read-out: EC90 Concentration Mix): 0.068 nM
- EC70 Concentration Mix [3, 12]: 0.070 nM
- EC95 Concentration Mix [3, 12]: 0.108 nM
- Potency increase at EC50 [3, 13]: 366.648 fold
- Potency increase at EC70 [3, 13]: 383.286 fold
- Potency increase at EC90 [3, 13]: more than 399 fold
- Potency increase at EC95 [3, 13]: 414.213 fold
- Potency increase at EC90 ([3]; in combination T-20:T-1249:C34 (8:2:1) vs alone, listed as T20): 399.648 fold
- EC50 ([3]; in combination T-20:T-1249:C34 (8:2:1), read-out: EC50 Concentration Mix): 0.054 nM
- EC90 ([3]; in combination T-20:T-1249:C34 (8:2:1), read-out: EC90 Concentration Mix): 0.091 nM
- EC70 Concentration Mix [3, 14]: 0.019 nM
- EC95 Concentration Mix [3, 14]: 0.029 nM
- Potency increase at EC50 [3, 15]: 1319.933 fold
- Potency increase at EC70 [3, 15]: 1412.105 fold
- Potency increase at EC95 [3, 15]: 1542.586 fold
- EC50 ([3]; in combination T-20:T-1249:T-1144 (4:1:1), read-out: EC50 Concentration Mix): 0.015 nM
- EC90 ([3]; in combination T-20:T-1249:T-1144 (4:1:1), read-out: EC90 Concentration Mix): 0.025 nM
- EC70 Concentration Alone ([3]; peptide tested alone): 26.830 nM and 20.882 nM
- EC95 Concentration Alone ([3]; peptide tested alone): 44.735 nM and 30.973 nM
- EC70 Concentration Alone [3, 16]: 26.830 nM
- EC95 Concentration Alone [3, 16]: 44.735 nM
- EC50 ([3]; peptide tested alone, read-out: EC50 Concentration Alone): 19.8 nM and 16.5 nM
- EC90 ([3]; peptide tested alone, read-out: EC90 Concentration Alone): 36.4 nM and 26.4 nM
- EC50 ([4]; RU570 (G, R5) primary isolate, peptide alone, read-out: EC50 alone): 38.4 nM
- Dose reduction ([4]; RU570, T-20+T-1249+T-1144 4:1:1): 8.47 fold
- EC50 ([4]; RU570, T-20+T-1249+T-1144 4:1:1, read-out: EC50 in mixture): 4.54 nM
- Dose reduction ([4]; RU570, T-20 combined with T-1144): 7.41 fold
- EC50 ([4]; RU570, T-20 combined with T-1144, ratios 4:1:1, read-out: EC50 in mixture): 5.19 nM
- EC50 ([4]; RU570, T-20 combined with T-1249, ratios 4:1:1, read-out: EC50 in mixture): 5.98 nM
